Laboratory results published in article PMC9569578, “In Planta, In Vitro and In Silico Studies of Chiral N^6-Benzyladenine Derivatives: Discovery of Receptor-Specific S-Enantiomers with Cytokinin or Anticytokinin Activities” (International Journal of Molecular Sciences, 2022).

How the values were obtained:
Experiment in all cases: radioligand competition with 3H-isopentenyladenine, plant microsomes
Type in all cases: binding
Conditions in all cases: 1 µM compound vs 3H-iP (2 pmol per sample), membranes of N. benthamiana
[1] = molecular target: T1, CRE1/AHK4 (Arabidopsis thaliana, UniProt Q9C5U0)
T1 construct: receptor fused with GFP, transiently expressed in Nicotiana benthamiana leaves; microsomal membranes
Description: radioligand competition with 3H-isopentenyladenine, plant microsomes on CRE1/AHK4

[2] = molecular target: T2, AHK3 (Arabidopsis thaliana, UniProt Q9C5U1)
T2 construct: receptor fused with GFP, transiently expressed in Nicotiana benthamiana leaves; microsomal membranes
T2 sequence (Q9C5U1 1-1036): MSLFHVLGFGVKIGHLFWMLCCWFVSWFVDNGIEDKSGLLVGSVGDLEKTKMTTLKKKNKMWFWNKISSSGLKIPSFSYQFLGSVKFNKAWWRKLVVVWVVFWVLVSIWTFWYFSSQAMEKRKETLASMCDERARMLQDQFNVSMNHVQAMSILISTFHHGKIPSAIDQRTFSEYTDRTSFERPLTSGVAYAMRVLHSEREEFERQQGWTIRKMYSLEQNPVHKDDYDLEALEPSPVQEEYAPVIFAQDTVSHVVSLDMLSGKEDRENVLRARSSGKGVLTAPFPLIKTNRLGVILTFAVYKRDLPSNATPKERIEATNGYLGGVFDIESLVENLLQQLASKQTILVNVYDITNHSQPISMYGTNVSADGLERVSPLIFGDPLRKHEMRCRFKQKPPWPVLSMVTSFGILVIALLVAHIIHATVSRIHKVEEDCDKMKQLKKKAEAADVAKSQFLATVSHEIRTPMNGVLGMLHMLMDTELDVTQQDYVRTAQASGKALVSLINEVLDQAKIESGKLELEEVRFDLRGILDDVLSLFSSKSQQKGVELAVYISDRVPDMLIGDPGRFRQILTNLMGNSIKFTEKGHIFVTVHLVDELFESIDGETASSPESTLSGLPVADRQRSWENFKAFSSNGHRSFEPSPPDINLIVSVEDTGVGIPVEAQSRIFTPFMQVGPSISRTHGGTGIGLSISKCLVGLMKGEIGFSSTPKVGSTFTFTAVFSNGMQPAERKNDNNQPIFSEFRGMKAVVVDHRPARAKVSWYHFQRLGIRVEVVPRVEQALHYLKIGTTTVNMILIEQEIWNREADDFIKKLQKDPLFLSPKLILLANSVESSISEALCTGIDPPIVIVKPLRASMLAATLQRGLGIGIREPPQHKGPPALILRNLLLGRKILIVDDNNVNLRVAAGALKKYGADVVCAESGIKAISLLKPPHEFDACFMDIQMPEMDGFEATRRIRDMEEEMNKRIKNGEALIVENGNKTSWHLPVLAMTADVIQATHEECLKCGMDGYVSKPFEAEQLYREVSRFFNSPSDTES
Description: radioligand competition with 3H-isopentenyladenine, plant microsomes on AHK3

[3] = molecular target: T3, AHK2 (Arabidopsis thaliana, UniProt Q9C5U2)
T3 construct: receptor fused with GFP, transiently expressed in Nicotiana benthamiana leaves; microsomal membranes
T3 sequence (Q9C5U2 1-1176): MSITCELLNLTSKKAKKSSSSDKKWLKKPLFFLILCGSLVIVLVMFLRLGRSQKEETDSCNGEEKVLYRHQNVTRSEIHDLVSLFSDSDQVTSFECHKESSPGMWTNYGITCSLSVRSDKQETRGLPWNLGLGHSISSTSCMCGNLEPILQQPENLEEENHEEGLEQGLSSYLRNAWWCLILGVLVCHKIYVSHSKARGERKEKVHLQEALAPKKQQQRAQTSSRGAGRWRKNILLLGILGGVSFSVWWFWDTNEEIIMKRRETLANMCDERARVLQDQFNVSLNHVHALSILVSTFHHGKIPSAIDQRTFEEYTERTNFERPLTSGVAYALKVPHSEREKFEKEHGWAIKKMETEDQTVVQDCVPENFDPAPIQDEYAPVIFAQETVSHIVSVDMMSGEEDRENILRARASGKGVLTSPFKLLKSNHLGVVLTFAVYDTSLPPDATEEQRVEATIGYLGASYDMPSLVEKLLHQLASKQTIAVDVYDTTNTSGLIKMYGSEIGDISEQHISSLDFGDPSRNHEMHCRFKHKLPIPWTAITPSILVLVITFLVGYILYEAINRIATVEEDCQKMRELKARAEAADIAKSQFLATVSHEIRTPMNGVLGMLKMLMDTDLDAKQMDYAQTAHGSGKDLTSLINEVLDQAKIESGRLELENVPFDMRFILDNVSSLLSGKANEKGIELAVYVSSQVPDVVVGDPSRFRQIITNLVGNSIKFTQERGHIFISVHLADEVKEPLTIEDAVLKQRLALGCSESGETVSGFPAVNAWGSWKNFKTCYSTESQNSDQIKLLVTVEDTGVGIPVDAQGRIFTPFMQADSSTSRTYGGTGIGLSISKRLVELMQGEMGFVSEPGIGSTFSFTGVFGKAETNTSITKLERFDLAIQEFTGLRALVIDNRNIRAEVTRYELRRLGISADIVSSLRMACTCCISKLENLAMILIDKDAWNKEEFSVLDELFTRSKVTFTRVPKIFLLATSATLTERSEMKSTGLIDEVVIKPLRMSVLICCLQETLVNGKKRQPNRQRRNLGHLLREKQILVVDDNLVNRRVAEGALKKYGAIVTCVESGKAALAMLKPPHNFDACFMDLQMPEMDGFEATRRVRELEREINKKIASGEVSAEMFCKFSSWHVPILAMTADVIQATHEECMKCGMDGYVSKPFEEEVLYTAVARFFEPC
Description: radioligand competition with 3H-isopentenyladenine, plant microsomes on AHK2

T1 sequence (Q9C5U0 whole entry, the tested form may be a part): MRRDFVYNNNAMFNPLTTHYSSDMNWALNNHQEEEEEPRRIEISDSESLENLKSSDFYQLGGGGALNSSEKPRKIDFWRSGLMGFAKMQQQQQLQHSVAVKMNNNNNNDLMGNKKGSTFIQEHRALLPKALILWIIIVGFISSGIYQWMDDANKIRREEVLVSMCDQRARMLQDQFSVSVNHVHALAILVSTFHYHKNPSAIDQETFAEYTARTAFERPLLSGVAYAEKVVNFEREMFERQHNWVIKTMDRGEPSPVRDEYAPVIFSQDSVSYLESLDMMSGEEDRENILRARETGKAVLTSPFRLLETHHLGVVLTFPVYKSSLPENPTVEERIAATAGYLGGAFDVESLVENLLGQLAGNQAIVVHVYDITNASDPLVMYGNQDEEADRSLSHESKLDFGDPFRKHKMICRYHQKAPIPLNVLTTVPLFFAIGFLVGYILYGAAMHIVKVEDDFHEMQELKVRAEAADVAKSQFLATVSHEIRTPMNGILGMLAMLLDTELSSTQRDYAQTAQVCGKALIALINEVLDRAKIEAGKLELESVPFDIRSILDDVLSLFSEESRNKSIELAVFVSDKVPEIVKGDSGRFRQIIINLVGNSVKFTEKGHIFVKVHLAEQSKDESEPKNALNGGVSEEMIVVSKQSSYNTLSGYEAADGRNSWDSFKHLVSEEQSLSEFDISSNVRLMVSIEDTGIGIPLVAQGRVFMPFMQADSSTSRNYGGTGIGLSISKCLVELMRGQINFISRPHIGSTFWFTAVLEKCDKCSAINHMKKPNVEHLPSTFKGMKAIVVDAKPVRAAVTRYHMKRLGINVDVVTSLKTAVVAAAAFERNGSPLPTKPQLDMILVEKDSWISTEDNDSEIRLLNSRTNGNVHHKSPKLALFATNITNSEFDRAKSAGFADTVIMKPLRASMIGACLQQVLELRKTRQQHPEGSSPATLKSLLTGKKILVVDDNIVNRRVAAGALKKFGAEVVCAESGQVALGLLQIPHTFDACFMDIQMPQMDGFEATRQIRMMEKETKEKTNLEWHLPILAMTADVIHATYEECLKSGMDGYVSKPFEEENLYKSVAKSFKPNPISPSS

CRE1/AHK4 / 1 μM [1] | АНК3 / 1 μM [2] | АНК2 / 1 μM [3] | SMILES
87.7 ± 1.0% | 97.7 ± 1.0% | 88.9 ± 0.5% | C[C@@H](Nc1ncnc2[nH]cnc12)c1ccccc1 [5a, N^6-((R)-α-methylbenzyl) adenine]
 | 46.5 ± 2.2% | 8.9 ± 4.9% | C[C@H](Nc1ncnc2[nH]cnc12)c1ccccc1 [5b, N^6-((S)-α-methylbenzyl) adenine]
97.2 ± 0.9% | 99.8 ± 1.5% | 92.1 ± 1.0% | C[C@@H](Nc1nc(F)nc2[nH]cnc12)c1ccccc1 [6a, 2-fluoro,N^6-((R)-α-methylbenzyl) adenine]
45.8 ± 0.3% | 74.7 ± 1.7% | 8.7 ± 0.9% | C[C@H](Nc1nc(F)nc2nc[nH]c12)c1ccccc1 [6b, 2-fluoro,N^6-((S)-α-methylbenzyl) adenine]
74.1 ± 1.6% | 88.9 ± 0.7% | 42.6 ± 0.4% | C[C@@H](Nc1nc(Cl)nc2[nH]cnc12)c1ccccc1 [7a, 2-chloro,N^6-((R)-α-methylbenzyl) adenine]
37.1 ± 1.2% | 80.6 ± 1.5% | 3.1 ± 0.4% | C[C@H](Nc1nc(Cl)nc2[nH]cnc12)c1ccccc1 [7b, 2-chloro,N^6-((S)-α-methylbenzyl) adenine]
30.4 ± 1.0% | 54.7 ± 1.1% | 58.8 ± 1.3% | C[C@@H](Nc1nc(N)nc2[nH]cnc12)c1ccccc1 [8a, 2-amino,N^6-((R)-α-methylbenzyl) adenine]
